One compound from US20220354835A1, “COMPOUNDS FOR DEGRADING TAU PROTEIN AGGREGATES AND USES THEREOF” (Aprinoia Therapeutics Limited, priority 2019, published 2022) can be followed below.

Data set [1] deals with T1, heparin-induced aggregated tau (aTau), full-length 2N4R human Tau (Homo sapiens, UniProt P10636).
T1 construct: transformed with a full-length 2N4R tau expression plasmid; made in house; host or cells: E. coli BL21
Briefly: In vitro fluorometric aTau binding assay. The conditions noted are these: 0.04 μM aTau, serially diluted compound 10 to 0.00017 μM, 37° C. 1 hour, fluorescence. The protocol:
(§1) (A) Expression and purification of human Tau: 1 mM IPTG (Sangon Biotech, Cat. No A100487) was used to induce production of tau by bacteria (BL21, Invitrogen, Cat. No C600003) transformed with a full-length 2N4R tau expression plasmid. After 3 hours, cell pellet was resuspended in lysis buffer (100 mM PIPES, 1 mM EGTA, 1 mM MgSO4, pH 6.8) and lysed by sonication followed by centrifugation (15,000 rpm, 15 min, 4° C.). The supernatant was then placed in a boiling water bath for 20 min, followed by centrifugation (15,000 rpm, 15 min, 4° C.). Supernatant was loaded onto a Q-Sepharose® Fast Flow column (GE healthcare, Cat. No 17-0510-01), the flow-through fraction was loaded onto an SP-Sepharose® Fast Flow column (GE healthcare, Cat. No 17-0729-01), and tau protein was eluted with elution buffer (100 mM PIPES, 1 M NaCl, 1 mM EGTA, 1 mM MgSO4, 0.2 M NaCl, pH 6.8). Collected fractions of tau-containing eluates were pooled, concentrated and dialyzed against HEPES buffer (25 mM HEPES, 0.1 mM EDTA, 0.5 mM DTT, 100 mM NaCl, pH 7.2) and stored at −80° C. in small aliquots until use. Protein concentration was determined by UV absorption.
(§2) (B) Preparation of heparin-induced aggregated tau (aTau): 2 μM of tau prepared in 30 mM Tris-HCl, pH 7.5 buffer was incubated in tube with 15 μM heparin (Sigma, Cat. No H3149) at 37° C. for 24 hours.
(D) In vitro fluorometric aTau binding assays: 2 μM aTau was diluted to 0.04 μM with 30 mM Tris-HCl (pH 6.8), and then incubated with serially diluted compound (three-fold serial dilutions, from 10 to 0.00017 μM) in a 96-well plate (Corning, Cat. No 3573) at 37° C. for 1 hour. Fluorescence intensity (excitation/emission=370/500 nm) of APN-0729 was read by microplate spectrometer (EnSpire 2300, PerkinElmer). Compound Kd values were calculated using the following equation: Y=Bmax* X (Kd+X), where X is the concentration of compound; Y is the fluorescence signal of (compound+aTau)−(compound+DMSO); and Bmax is the maximum signal.

In data set [2] the target is T1, heparin-induced aggregated tau (aTau), full-length 2N4R human Tau. As to the kind of experiment: PBB5 competition assay. The note with it: 0.12 μM aTau. In kind it is binding. As to the method:
as §1, §2
(E) PBBS competition assay: 2 μM of aTau was diluted to 0.12 μM by […] (pH 6.8) and then incubated with 0.1 μM 2-(4-(2-(methylamino)pyridine-5-yl)-1,3-butadiene-1-yl)benzothiazole-6-ol (PBB5) and serially diluted compound (three-fold serial dilution, from 10 to 0.00017 μM) in a 96-well plate (Corning, Cat. No 3573) at 37° C. for 1 hour. Fluorescence intensity (excitation/emission=530/690 nm) of PBB5 was read by microplate spectrometer (EnSpire 2300, PerkinElmer). Percentage of competition was calculated using the following equation: (Max−well of compound alone)/(Max−Min)*100%, where Max=(Tau+PBB5) signals−(buffer+PBB5) signals; and Min=(buffer+PBB5) signals−(buffer+PBB5) signals.
The IC50 value of each compound was calculated with GraphPad Prism software using the “4 Parameter Logistic Model or Sigmoidal Dose-Response Model”:
Y=Bottom+(Top−Bottom)/(1+(IC50/×)^HillSlope)

Data set [3] in a line: In vivo pharmacokinetic study of plasma and brain tissue. The note with it: mice, 1 mg/kg, intravenous. As to the method:
To determine whether the compounds of the present disclosure are capable of crossing the blood brain barrier (BBB), example compound 160313 was administered to mice in a pharmacokinetic study (1 mg/kg, intravenous) of plasma and brain tissue.
Animal Husbandry: Mice were housed at animal room environment with ventilation 15 times/hour, lighting 12 hours/day, temperature 20° C. to 24° C. and humidity 40% to 70%. The study rooms were disinfected and cleaned prior to the start of the study and the operation area was cleaned after each dosing or sampling during the study conduct. All animals had free access to food and water during the study. The animals had access to Certified Rodent Diet and water ad libitum. The nutritional composition and levels of contaminants of the diet and impurities and contaminants of the water were monitored by third organization. The health status of the animals was evaluated in accordance with accepted animal husbandry procedures and deemed suitable for experimental use. […]
Bioanalytical Method Development: The concentrations of compound in plasma and brain samples were determined using a liquid chromatography with tandem mass spectrometry (LC-MS/MS) based method.

T1 sequence (P10636 1-441 isoform P10636-8): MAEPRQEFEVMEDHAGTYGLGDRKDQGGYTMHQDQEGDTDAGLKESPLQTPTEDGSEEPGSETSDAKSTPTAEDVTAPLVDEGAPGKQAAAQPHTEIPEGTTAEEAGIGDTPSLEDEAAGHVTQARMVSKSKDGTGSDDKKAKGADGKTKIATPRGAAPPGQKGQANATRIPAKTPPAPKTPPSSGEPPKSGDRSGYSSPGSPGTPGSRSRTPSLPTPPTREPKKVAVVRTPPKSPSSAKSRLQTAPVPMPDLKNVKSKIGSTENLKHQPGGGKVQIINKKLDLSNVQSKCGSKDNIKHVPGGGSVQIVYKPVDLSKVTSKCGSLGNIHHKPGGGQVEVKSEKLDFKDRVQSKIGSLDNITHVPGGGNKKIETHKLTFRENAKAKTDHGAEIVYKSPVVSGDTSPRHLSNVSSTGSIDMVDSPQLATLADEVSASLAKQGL

Compound `CN(C)c1ccc(-c2ccc(-c3nc4ccc(NCCOCCOc5ccc6c(c5)CN(C5CCC(=O)NC5=O)C6=O)cc4s3)cc2)cn1` (stereo not shown) [Compound 160313, 3-[6-[2-[2-[[2-[4-[6-(dimethylamino)pyridin-3-yl]phenyl]-1,3-benzothiazol-6-yl]amino]ethoxy]ethoxy]-3-oxo-1H-isoindol-2-yl]piperidine-2,6-dione] returned a Kd in data set [1] of 80 nM. In data set [2] (0.1 μM PBB5, 37° C. 1 hour, PBB5 fluorescence 530/690 nm), this compound registered an IC50 of 220 nM. Moreover, the Emax in data set [2] (0.1 μM PBB5, compound up to 10 μM, read-out: Competition Assay with PBB5: Bmax (%)) stood at 64%. Moreover, the “Cmax, Brain” value in data set [3] is 111 ng/mL.
